Among the data in US20120225862A1, “HETEROARYL BENZAMIDES, COMPOSITIONS AND METHODS OF USE” (AUCKLAND UNIVSERVICES LIMITED, priority 2009, published 2012) are melting point and IC50 values, retold here.

One data set has as its system RCC4. The data set can be described thus: XTT IC50 / viability assay, RCC4 cells. Format: cell-based, human. To be noted: Homo sapiens, RCC4, 96 h; XTT assay, four days. The procedure, abridged:
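RCC4 parental and VHL-reintroduced RCC4/VHL cells (DMEM, 10% FCS) treated with serially diluted drug for four days. Viability by XTT (0.3 mg/mL) with N-methyl dibenzopyrazine methyl sulfate, 1–2 h at 37 °C, absorbance 450 nm; IC50 by linear interpolation.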

`O=C(Nc1cccnc1)c1ccc(CNS(=O)(=O)c2ccc(C34CC5CC(CC(C5)C3)C4)cc2)cc1` (hydrate or solvate) [Example 39, 4-[({[4-(1-Adamantyl)phenyl]sulfonyl}amino)methyl]-N-(3-pyridinyl)benzamide] gave a melting point of 220 to 222 °C. On the same count and under the same terms, the result for `O=C(Nc1cccnc1)c1ccc(CNS(=O)(=O)c2ccc(C34CC5CC(CC(Cl)(C5)C3)C4)cc2)cc1` (hydrate or solvate) [Example 40, 4-[({[4-(3-chloro-1-adamantyl)phenyl]sulfonyl}amino)methyl]-N-(3-pyridinyl)benzamide] reads 229 to 232 °C. Consider `O=C(Nc1nccs1)c1ccc(CNS(=O)(=O)c2ccccc2)cc1` [Example 4, 4-(Phenylsulfonamidomethyl)-N-(thiazol-2-yl)benzamide], for which the melting point was in the range of 189 to 191 °C. Besides, the IC50 in the data set with RCC4 is > 20 µM. For `O=C(Nc1cc[nH]n1)c1ccc(CNS(=O)(=O)c2ccccc2)cc1` [Example 5, 4-(Phenylsulfonamidomethyl)-N-(1H-pyrazol-3-yl)benzamide], in that order: 180 to 182 °C and > 20 µM. For `O=C(Nc1cnc2ccccc2c1)c1ccc(CNS(=O)(=O)c2ccccc2)cc1` [Example 6, 4-(Phenylsulfonamidomethyl)-N-(quinolin-3-yl)benzamide], in that order: 186 to 188 °C and > 20 µM.

Take `O=C(Nc1cccc2ncccc12)c1ccc(CNS(=O)(=O)c2ccccc2)cc1` [Example 7, 4-(Phenylsulfonamidomethyl)-N-(quinolin-5-yl)benzamide]: the melting point lay within 198 to 201 °C. Besides, the IC50 in the data set with RCC4 was > 20 µM. For `O=C(Nc1cnccn1)c1ccc(CNS(=O)(=O)c2ccccc2)cc1` [Example 8, 4-(Phenylsulfonamidomethyl)-N-(pyrazin-2-yl)benzamide], in that order: 200 to 202 °C and > 20 µM. For `O=C(Nc1ncccn1)c1ccc(CNS(=O)(=O)c2ccccc2)cc1` [Example 9, 4-(Phenylsulfonamidomethyl)-N-(pyrimidin-2-yl)benzamide], in that order: 180 to 182 °C and > 20 µM. For `COC(=O)c1ccccc1S(=O)(=O)NCc1ccc(C(=O)Nc2cccnc2)cc1` [Example 14, Methyl 2-(N-(4-(Pyridin-3-ylcarbamoyl)benzyl)sulfamoyl)benzoate], in that order: 155 to 157 °C and > 20 µM. As for `O=C(Nc1cccnc1)c1ccc(CNS(=O)(=O)c2ccccc2C(F)(F)F)cc1` [Example 15, N-(pyridin-3-yl)-4-((2-(trifluoromethyl)phenylsulfonamido)methyl)benzamide], the melting point lay within 234 to 237 °C. Besides, in the data set on RCC4, the IC50 was > 20 µM. For `COC(=O)CCc1ccc(S(=O)(=O)NCc2ccc(C(=O)Nc3cccnc3)cc2)cc1` [Example 41, Methyl 3-{4-[({4-[(3-Pyridinylamino)carbonyl]benzyl}amino)sulfonyl]phenyl}propanoate], in that order: 181 to 182 °C and > 20 µM. For `COC(=O)c1ccc(S(=O)(=O)NCc2ccc(C(=O)Nc3cccnc3)cc2)cc1` [Example 47, Methyl 4-(N-(4-(Pyridin-3-ylcarbamoyl)benzyl)sulfamoyl)benzoate], in that order: 212 to 215 °C and > 20 µM. `O=C(Nc1cccnc1)c1ccc(CNS(=O)(=O)c2ccc([N+](=O)[O-])cc2)cc1` [Example 51, 4-((4-Nitrophenylsulfonamido)methyl)-N-(pyridin-3-yl)benzamide] returned a melting point of 241 to 243 °C. Also, in the data set on RCC4, the IC50 is > 20 µM.

In the case of `Cc1c(Cl)cccc1S(=O)(=O)NCc1ccc(C(=O)Nc2cccnc2)cc1` [Example 68, 4-((3-Chloro-2-methylphenylsulfonamido)methyl)-N-(pyridin-3-yl)benzamide], the melting point is 218 to 221 °C. The IC50 with RCC4 is > 20 µM. With `N#Cc1cc(S(=O)(=O)NCc2ccc(C(=O)Nc3cccnc3)cc2)ccc1F` [Example 71, 4-((3-Cyano-4-fluorophenylsulfonamido)methyl)-N-(pyridin-3-yl)benzamide], the melting point was 211 to 213 °C. Regarding `Cc1cc(C)cc(C(=O)NCc2ccc(C(=O)Nc3cccnc3)cc2)c1` [Example 87, 3,5-Dimethyl-N-(4-(pyridin-3-ylcarbamoyl)benzyl)benzamide], the melting point was 241 to 243 °C. Further, the IC50 with RCC4 was > 20 µM. `COc1ccc(C(=O)NCc2ccc(C(=O)Nc3cccnc3)cc2)cc1OC` [Example 88, 3,4-Dimethoxy-N-(4-(pyridin-3-ylcarbamoyl)benzyl)benzamide] showed a melting point of 219 to 220 °C. Moreover, in the data set on RCC4, the half-maximal inhibitory concentration (IC50) was > 20 µM. For `O=C(Nc1ccc[n+]([O-])c1)c1ccc(CNS(=O)(=O)c2ccccc2)cc1` [Example 93, N-(1-Oxido-3-pyridinyl)-4-((phenylsulfonamido)methyl)-benzamide], in that order: 230 to 231 °C and > 20 µM. For `O=C(Nc1ccncc1)c1ccc(CNS(=O)(=O)c2ccc(I)cc2)cc1` [Example 99], in that order: 270 to 273 °C and > 20 µM.

The molecule `COCCCc1ccc(S(=O)(=O)NCc2ccc(C(=O)Nc3cccnc3)cc2)cc1` [Example 101, 4-[({[4-(3-Methoxypropyl)phenyl]sulfonyl}amino)methyl]-N-(3-pyridinyl)benzamide] displayed a melting point of 172 to 174 °C. Also, the IC50 in the data set with RCC4 was in the range of 1 to 20 µM. For `O=C(Nc1cccnc1)c1ccc(CNS(=O)(=O)c2ccc(C#CCO)cc2)cc1` [Example 103, 4-[({[4-(3-Hydroxy-1-propynyl)phenyl]sulfonyl}amino)methyl]-N-(3-pyridinyl)benzamide], in that order: 207 to 210 °C and > 20 µM. `CC(C)(C)c1ccc(S(=O)(=O)NCc2ccc(C(=O)Nc3ccncc3)cc2)cc1` [Example 106, 4-((4-tert-Butylphenylsulfonamido)methyl)-N-(pyridin-4-yl)benzamide] displayed a melting point of 261 to 263 °C. Regarding `Cc1cncc(NC(=O)c2ccc(CNS(=O)(=O)c3ccc(C(C)(C)C)cc3)cc2)c1` [Example 107, 4-({[(4-tert-Butylphenyl)sulfonyl]amino}methyl)-N-(5-methyl-3-pyridinyl)benzamide], the melting point lay within 189 to 191 °C. In addition, in the data set with RCC4, the IC50 was > 20 µM.

`Cc1ncccc1NC(=O)c1ccc(CNS(=O)(=O)c2ccc(C(C)(C)C)cc2)cc1` [Example 108, 4-({[(4-tert-Butylphenyl)sulfonyl]amino}methyl)-N-(2-methyl-3-pyridinyl)benzamide]: the melting point lay within 188 to 190 °C. Also, the IC50 in the data set with RCC4 was > 20 µM.

`Cc1ccc(NC(=O)c2ccc(CNS(=O)(=O)c3ccc(C(C)(C)C)cc3)cc2)cn1` [Example 109, 4-({[(4-tert-Butylphenyl)sulfonyl]amino}methyl)-N-(6-methyl-3-pyridinyl)benzamide]: the melting point was 235 to 237 °C. For the same molecule, the IC50 with RCC4 was > 20 µM. For `COc1ccc(NC(=O)c2ccc(CNS(=O)(=O)c3ccc(C(C)(C)C)cc3)cc2)cn1` [Example 110, 4-({[(4-tert-Butylphenyl)sulfonyl]amino}methyl)-N-(6-methoxy-3-pyridinyl)benzamide], in that order: 238 to 240 °C and > 20 µM. For `CC(C)(C)c1ccc(S(=O)(=O)NCc2ccc(C(=O)Nc3ccc(Cl)nc3)cc2)cc1` [Example 111, 4-({[(4-tert-Butylphenyl)sulfonyl]amino}methyl)-N-(6-chloro-3-pyridinyl)benzamide], in that order: 251 to 253 °C and > 20 µM. For `Cc1ccncc1NC(=O)c1ccc(CNS(=O)(=O)c2ccc(C(C)(C)C)cc2)cc1` [Example 114, 4-({[(4-tert-Butylphenyl)sulfonyl]amino}methyl)-N-(4-methyl-3-pyridinyl)benzamide], in that order: 183 to 185 °C and > 20 µM. The molecule `CC(C)(C)c1ccc(S(=O)(=O)NCc2ccc(C(=O)Nc3cncc(Cl)c3)cc2)cc1` [Example 115, 4-({[(4-tert-Butylphenyl)sulfonyl]amino}methyl)-N-(5-chloro-3-pyridinyl)benzamide] had a melting point of 217 to 219 °C. The IC50 with RCC4 is > 20 µM. Take `CCC(=O)Nc1cccc(S(=O)(=O)NCc2ccc(C(=O)Nc3cccnc3)cc2)c1` [Example 143, 4-[({[3-(Propionylamino)phenyl]sulfonyl}amino)methyl]-N-(3-pyridinyl)benzamide]: the melting point was in the range of 215 to 218 °C. The molecule `C=CC(=O)Nc1cccc(S(=O)(=O)NCc2ccc(C(=O)Nc3cccnc3)cc2)c1` [Example 144, 4-[({[3-(Acryloylamino)phenyl]sulfonyl}amino)methyl]-N-(3-pyridinyl)benzamide] had a melting point of 178 to 180 °C.

With `Cc1cc(CNS(=O)(=O)c2ccc(C(C)(C)C)cc2)ccc1C(=O)Nc1cccnc1` [Example 145, 4-({[(4-tert-Butylphenyl)sulfonyl]amino}methyl)-2-methyl-N-(3-pyridinyl)benzamide], the melting point fell in the range of 162 to 163 °C. The same measure, in the same setting: the result for `CC(C)(C)c1ccc(S(=O)(=O)NCc2ccc(C(=O)Nc3cccnc3)c(F)c2)cc1` [Example 146, 4-({[(4-tert-Butylphenyl)sulfonyl]amino}methyl)-2-fluoro-N-(3-pyridinyl)benzamide] reads 185 to 187 °C; that for `Cc1cc(C(=O)Nc2cccnc2)ccc1CNS(=O)(=O)c1ccc(C(C)(C)C)cc1` [Example 147, 4-({[(4-tert-Butylphenyl)sulfonyl]amino}methyl)-3-methyl-N-(3-pyridinyl)benzamide], 203 to 205 °C; that for `CC(C)(C)c1ccc(S(=O)(=O)NCc2ccc(C(=O)Nc3cccnc3)cc2F)cc1` [Example 148, 4-({[(4-tert-Butylphenyl)sulfonyl]amino}methyl)-3-fluoro-N-(3-pyridinyl)benzamide], 198 to 200 °C.
